# According to PubChem BioAssay AID1963445 (Molecular Pharmacology Branch, DTP, NCI, 2024):
# Tested on: MCF7 complex spheroid growth, % test/control
# Assay: Anticancer human tumor MCF7 cell line growth inhibition [Asc];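 also: spheroids exposed to compounds for 7 days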;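 as to viability, T/C: 100% = DMSO vehicle control wells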
# Settings: for IC50: curve of first compound; for viability, T/C: stronger effect = lower value
# Summary of the method: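 Stromal components (HUVEC and hMSC) are co-assembled with the cancer cells into multicellular spheroids. Drugs are then added singly or paired, at concentrations falling by half-log increments from a clinically achievable maximum, capped at 10 microM without known Cmax.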
# [1] = second compound 0.0316 µM, first compound 0.00316 µM
# [2] = second compound 0.0316 µM, first compound 0.01 µM
# [3] = second compound 0.0316 µM, first compound 0.0316 µM
# [4] = second compound 0.0316 µM, first compound 0.1 µM
# [5] = second compound 0.1 µM, first compound 0.00316 µM
# [6] = second compound 0.1 µM, first compound 0.01 µM
# [7] = second compound 0.1 µM, first compound 0.0316 µM
# [8] = second compound 0.1 µM, first compound 0.1 µM
# [9] = second compound 0.316 µM, first compound 0.00316 µM
# [10] = second compound 0.316 µM, first compound 0.01 µM
# [11] = second compound 0.316 µM, first compound 0.0316 µM
# [12] = second compound 0.316 µM, first compound 0.1 µM
# [13] = second compound 1 µM, first compound 0.00316 µM
# [14] = second compound 1 µM, first compound 0.01 µM
# [15] = second compound 1 µM, first compound 0.0316 µM
# [16] = second compound 1 µM, first compound 0.1 µM
# [17] = second compound 3.16 µM, first compound 0.00316 µM
# [18] = second compound 3.16 µM, first compound 0.01 µM
# [19] = second compound 3.16 µM, first compound 0.0316 µM
# [20] = second compound 3.16 µM, first compound 0.1 µM
# [21] = second compound 10 µM, first compound 0.00316 µM
# [22] = second compound 10 µM, first compound 0.01 µM
# [23] = second compound 10 µM, first compound 0.0316 µM
# [24] = second compound 10 µM, first compound 0.1 µM
structure (smiles),measurement,setting,value
COc1c(OCCCN2CCOCC2)ccc2c3n(c(=NC(=O)c4cnc(N)nc4)nc12)CCN3 + Cc1c(S(C)(=O)=O)c(-c2cc(F)cc(N3CCN(c4ccc(NS(=O)(=O)c5ccc(NC(CCN6CCC(C(=O)OCCCP(=O)(O)O)CC6)CSc6ccccc6)c(S(=O)(=O)C(F)(F)F)c5)cc4)CC3)c2)c(-c2ccc(Cl)cc2)n1C(C)C,IC50,second compound 0.0316 µM,31.9 nM
same,IC50,second compound 0.1 µM,38 nM
same,IC50,second compound 0.316 µM,40 nM
same,IC50,second compound 1 µM,32.8 nM
same,IC50,second compound 3.16 µM,33 nM
same,IC50,second compound 10 µM,76.3 nM
same,"viability, T/C",[1],89.8%
same,"viability, T/C",[2],73%
same,"viability, T/C",[3],48.7%
same,"viability, T/C",[4],33%
same,"viability, T/C","second compound 0.0316 µM, first compound 0.316 µM",12%
same,"viability, T/C","second compound 0.0316 µM, first compound 1 µM",11.4%
same,"viability, T/C",[5],77.6%
same,"viability, T/C",[6],69%
same,"viability, T/C",[7],53.1%
same,"viability, T/C",[8],33.2%
same,"viability, T/C","second compound 0.1 µM, first compound 0.316 µM",11.2%
same,"viability, T/C","second compound 0.1 µM, first compound 1 µM",9.98%
same,"viability, T/C",[9],72.9%
same,"viability, T/C",[10],72.2%
same,"viability, T/C",[11],53.9%
same,"viability, T/C",[12],30.3%
same,"viability, T/C","second compound 0.316 µM, first compound 0.316 µM",10.3%
same,"viability, T/C","second compound 0.316 µM, first compound 1 µM",11.9%
same,"viability, T/C",[13],73.6%
same,"viability, T/C",[14],68%
same,"viability, T/C",[15],50.5%
same,"viability, T/C",[16],27.4%
same,"viability, T/C","second compound 1 µM, first compound 0.316 µM",12.9%
same,"viability, T/C","second compound 1 µM, first compound 1 µM",13.1%
same,"viability, T/C",[17],76.5%
same,"viability, T/C",[18],64.6%
same,"viability, T/C",[19],52.2%
same,"viability, T/C",[20],30.4%
same,"viability, T/C","second compound 3.16 µM, first compound 0.316 µM",11.8%
same,"viability, T/C","second compound 3.16 µM, first compound 1 µM",13.4%
same,"viability, T/C",[21],171%
same,"viability, T/C",[22],164%
same,"viability, T/C",[23],103%
same,"viability, T/C",[24],34.7%
same,"viability, T/C","second compound 10 µM, first compound 0.316 µM",14.6%
same,"viability, T/C","second compound 10 µM, first compound 1 µM",11.9%
NC1CCC(NC2CC2c2ccccc2)CC1 (centres undefined) + Cc1c(S(C)(=O)=O)c(-c2cc(F)cc(N3CCN(c4ccc(NS(=O)(=O)c5ccc(NC(CCN6CCC(C(=O)OCCCP(=O)(O)O)CC6)CSc6ccccc6)c(S(=O)(=O)C(F)(F)F)c5)cc4)CC3)c2)c(-c2ccc(Cl)cc2)n1C(C)C,IC50,second compound 0.0316 µM,> 100 nM
same,IC50,second compound 0.1 µM,> 100 nM
same,IC50,second compound 0.316 µM,> 100 nM
same,IC50,second compound 1 µM,> 100 nM
same,IC50,second compound 3.16 µM,> 100 nM
same,IC50,second compound 10 µM,> 100 nM
same,"viability, T/C","second compound 0.0316 µM, first compound 0.000316 µM",120%
same,"viability, T/C","second compound 0.0316 µM, first compound 0.001 µM",93.7%
same,"viability, T/C",[1],93.3%
same,"viability, T/C",[2],103%
same,"viability, T/C",[3],99.9%
same,"viability, T/C",[4],106%
same,"viability, T/C","second compound 0.1 µM, first compound 0.000316 µM",96.7%
same,"viability, T/C","second compound 0.1 µM, first compound 0.001 µM",106%
same,"viability, T/C",[5],96.3%
same,"viability, T/C",[6],115%
same,"viability, T/C",[7],115%
same,"viability, T/C",[8],97.1%
same,"viability, T/C","second compound 0.316 µM, first compound 0.000316 µM",95.4%
same,"viability, T/C","second compound 0.316 µM, first compound 0.001 µM",87.7%
same,"viability, T/C",[9],113%
same,"viability, T/C",[10],97.1%
same,"viability, T/C",[11],91.7%
same,"viability, T/C",[12],100%
same,"viability, T/C","second compound 1 µM, first compound 0.000316 µM",85.4%
same,"viability, T/C","second compound 1 µM, first compound 0.001 µM",82.6%
same,"viability, T/C",[13],95%
same,"viability, T/C",[14],84.5%
same,"viability, T/C",[15],102%
same,"viability, T/C",[16],92.9%
same,"viability, T/C","second compound 3.16 µM, first compound 0.000316 µM",96.8%
same,"viability, T/C","second compound 3.16 µM, first compound 0.001 µM",83.8%
same,"viability, T/C",[17],87.5%
same,"viability, T/C",[18],98.6%
same,"viability, T/C",[19],83.5%
same,"viability, T/C",[20],127%
same,"viability, T/C","second compound 10 µM, first compound 0.000316 µM",150%
same,"viability, T/C","second compound 10 µM, first compound 0.001 µM",195%
same,"viability, T/C",[21],149%
same,"viability, T/C",[22],215%
same,"viability, T/C",[23],186%
same,"viability, T/C",[24],161%
